Measured values: PubChem BioAssay AID1996
Converted amounts (≈) assume the structure as drawn.

conditions: buffer; pH 7.4; 200.0 µM

Structure (SMILES)	solubility kinetic
Cc1cc(C(=O)OCC(=O)Nc2ccccc2)c(C)o1	20 µg/mL (≈ 73.2 µM)
O=C(c1ccc2c(c1)OCCO2)N1CCN(c2ccccn2)CC1	> 48.8 µg/mL
O=C(c1cc2ccccc2oc1=O)N1CCCCCCC1	42.5 µg/mL (≈ 149 µM)
COc1ccc(C(C)NC(=O)Cc2cccs2)cc1 (stereo unspecified)	37.1 µg/mL (≈ 135 µM)
CCCNC(=O)CN1C(=O)NC(CCSC)C1=O (stereo unspecified)	> 41 µg/mL
COc1ccc(N2CCN(C(=O)CN3c4cccc5cccc(c45)S3(=O)=O)CC2)cc1	2.3 µg/mL (≈ 5.26 µM)
O=C(NCCO)C1COc2ccccc2O1 (stereo unspecified)	> 33.5 µg/mL
CC(=O)c1ccc(NC(=O)COC(=O)Cc2ccsc2)cc1	> 47.6 µg/mL
O=C(CCNC(=O)c1ccccc1Cl)NCc1cccnc1	> 47.7 µg/mL
Cc1ccc(NC(=O)CCN2CCN(C)CC2)cc1.Cl	36.9 µg/mL
Cc1ccc(NC(=O)C2CCCN2C(=O)OCc2ccccc2)c(C)c1 (stereo unspecified)	18.5 µg/mL (≈ 52.5 µM)
CN(c1ccccc1)S(=O)(=O)c1cccc(C(=O)OCC(=O)Nc2ccc(C(N)=O)cc2)c1	9.9 µg/mL (≈ 21.2 µM)
O=C(CN1C(=O)NC2(CCCC2)C1=O)NCC1CCCO1 (stereo unspecified)	38.5 µg/mL (≈ 130 µM)
Cc1cc(=O)oc2cc(NC(=S)NCc3cccnc3)ccc12	8.9 µg/mL (≈ 27.4 µM)
CN1C(=O)c2ccc(C(=O)NCc3ccco3)cc2C1=O	> 42.6 µg/mL
O=C(O)CCSc1ncnc2sc(-c3ccccc3)cc12	> 47.5 µg/mL
S=c1nccc(-c2ccc(Cl)cc2)[nH]1	26.7 µg/mL (≈ 120 µM)
COc1cc(C(=O)NCC(=O)N2CCN(S(=O)(=O)c3ccccc3C(F)(F)F)CC2)cc(OC)c1OC	> 81.8 µg/mL
O=C(O)C1CCN(c2ccc([N+](=O)[O-])cc2[N+](=O)[O-])CC1	> 44.3 µg/mL
O=C(Nc1ccc(N2CCN(C(=O)c3cccs3)CC2)cc1)c1ccco1	1.6 µg/mL (≈ 4.19 µM)
CCCCNC(=O)CC1NCCNC1=O (stereo unspecified)	> 32 µg/mL
Cc1cccc(NC(=O)/C(C#N)=C/c2ccc[nH]2)c1C	2.1 µg/mL (≈ 7.92 µM)
COc1ccc(/C=C/C(=O)NCc2ccc3c(c2)OCO3)cc1OC	2.8 µg/mL (≈ 8.2 µM)
CC1CCN(S(=O)(=O)c2ccccc2)CC1	25.8 µg/mL (≈ 108 µM)
COc1ccccc1CNC(=O)C1CCCC1	> 35 µg/mL

Structure (SMILES)	solubility kinetic
COc1ccc(NC(=S)N2CCN(S(C)(=O)=O)CC2)cc1	> 49.4 µg/mL
CCN1CCN(C2CC(=O)NC2=O)CC1 (stereo unspecified)	> 31.7 µg/mL
Cc1c(CN2CCN(CC(C)(C)C)C(CCO)C2)[nH]c2ccccc12 (stereo unspecified)	45.1 µg/mL (≈ 131 µM)
Cc1ccc(S(=O)(=O)CCC(=O)NC2CCCC2)cc1	> 44.3 µg/mL
Cn1c(=S)[nH]c2sc3c(c2c1=O)CCC(C(C)(C)C)C3 (stereo unspecified)	< 0.3 µg/mL
CC(=O)c1ccc(NC(=O)COC(=O)c2ccc(F)cc2F)cc1	15.2 µg/mL (≈ 45.6 µM)
CC(=O)N1CCN(c2ccc(NC(=O)c3ccc(F)cc3)cc2)CC1	10.6 µg/mL (≈ 31 µM)
CC(=O)c1sc(NC(=O)c2ccc(C(C)(C)C)cc2)nc1C	< 0.3 µg/mL
O=c1[nH]c2ccc(Cl)cc2c(-c2ccccc2)c1[N+](=O)[O-]	< 0.3 µg/mL
C#CC(C)(C)NC(=O)c1ccc(-c2ccccc2F)cc1	< 0.6 µg/mL
CCCCSCCCNC(=O)Nc1ccc(C)c(C)c1	1.1 µg/mL (≈ 3.74 µM)
CCC(C)NC(=O)c1cc2cc3ccc(OC)cc3nc2o1 (stereo unspecified)	30.4 µg/mL (≈ 102 µM)
Cc1ccccc1OCCNCC(C)O.O=C(O)C(=O)O (stereo unspecified)	27 µg/mL
COc1ccc2[nH]cc(CCN3C(=O)c4ccc(C(=O)O)cc4C3=O)c2c1	> 54.7 µg/mL
CCOc1ccc(NC(=O)Nc2cccc(C)n2)cc1	< 0.2 µg/mL
CCCS(=O)(=O)N1CCCC(C(=O)Oc2ccc(Cl)cc2)C1 (stereo unspecified)	1.5 µg/mL (≈ 4.34 µM)
COc1ccc(C)cc1S(=O)(=O)N1CC(C)OC(C)C1 (stereo unspecified)	> 44.9 µg/mL
CN(C(=O)COC(=O)Cn1cnc2ccccc21)C1CCCCC1	45 µg/mL (≈ 137 µM)
COc1ccc(N2CC(C(=O)N3CCCC(C)C3)CC2=O)cc1 (stereo unspecified)	> 47.5 µg/mL
CC1CC(C)(C)NC(=S)N1CC(=O)NCc1ccc2c(c1)OCO2 (stereo unspecified)	36.2 µg/mL (≈ 104 µM)
CN1C(=O)NC(c2ccc([N+](=O)[O-])cc2)C2=C1CC(C)(C)CC2=O (stereo unspecified)	> 49.4 µg/mL
Clc1nc2ccccc2nc1-c1ccccc1	0.6 µg/mL (≈ 2.49 µM)
CCOC(=O)c1[nH]cnc1C(=O)Nc1ccc(F)cc1	6.7 µg/mL (≈ 24.2 µM)
NS(=O)(=O)c1ccc(NC(=O)c2ccc3c(c2)OCO3)cc1	< 0.3 µg/mL
O=c1c([N+](=O)[O-])c(O)c2cccc3c2n1CCC3	36.3 µg/mL (≈ 147 µM)

Structure (SMILES)	solubility kinetic
COCCNc1nc(C)c(C(C)=O)s1	25.7 µg/mL (≈ 120 µM)
c1ccc(CCCN2CCN(c3ccccn3)CC2)cc1	26.8 µg/mL (≈ 95.2 µM)
CC(NC(=O)CC1CCCCC1)c1ccccc1 (stereo unspecified)	> 36.8 µg/mL
O=C(Cc1ccc(Br)cc1)N1CCOCC1	38.8 µg/mL (≈ 137 µM)
COc1cccc(C(=O)NCc2ccco2)c1	> 34.7 µg/mL
Cc1ccc(S(=O)(=O)N2CCCCC2)cc1NC(=O)COc1ccccc1	4.3 µg/mL (≈ 11.1 µM)
COC(=O)C1CCN(C(=O)c2cc(=O)[nH]c3ccccc23)CC1	> 47.2 µg/mL
Cc1ccc(SCC(=O)O/N=C(\N)c2cccnc2)cc1	40 µg/mL (≈ 133 µM)
O=C(c1ccc(Cl)c(S(=O)(=O)N2CCOCC2)c1)N1CCCCCC1	52.2 µg/mL (≈ 135 µM)
Cn1nc(C(=O)NC2CCC(O)CC2)c2ccccc2c1=O (stereo unspecified)	> 45.2 µg/mL
O=C1CCCN1c1ccc(S(=O)(=O)N2CCCCC2)cc1	22.5 µg/mL (≈ 73 µM)
CC(C)(C)C(=O)Nc1ccc(-c2cnco2)cc1	> 36.6 µg/mL
COc1ccc(Cc2noc(-c3ccc([N+](=O)[O-])cc3)n2)cc1OC	2 µg/mL (≈ 5.86 µM)
CCC1(C)Cc2c(sc3nc(SC)[nH]c(=O)c23)CO1 (stereo unspecified)	7.9 µg/mL (≈ 26.7 µM)
CCCc1ccc(NS(=O)(=O)c2c(C)oc(C)c2C(=O)OC)cc1	7.4 µg/mL (≈ 21.1 µM)
N/C(=N\S(=O)(=O)c1cccs1)c1ccccc1Cl	> 45.1 µg/mL
CC1(C)CC(NC(=S)Nc2ccc([N+](=O)[O-])cc2)CC(C)(C)N1	42.1 µg/mL (≈ 125 µM)
CC1NC(=O)NC1CCCCCC(=O)Nc1ccc(F)cc1 (stereo unspecified)	> 46.1 µg/mL
O=C(NC(=S)Nc1cccc2ncccc12)c1ccco1	13.3 µg/mL (≈ 44.7 µM)
COc1ccc(OC)c(NC(=O)CCn2ccnc2)c1	38.9 µg/mL (≈ 141 µM)
Cc1cc(C)c(S(=O)(=O)c2ccc(Cl)cc2)c(=O)[nH]1	19.8 µg/mL (≈ 66.5 µM)
COc1ccccc1CNC(=O)c1ccc(C)s1	> 39.2 µg/mL
CN(C(=O)COC(=O)Cc1ccccc1[N+](=O)[O-])C1CCS(=O)(=O)C1 (stereo unspecified)	> 55.6 µg/mL
O=c1[nH]c(=O)n(C2OC(CO)C(O)C2O)cc1Br (stereo unspecified)	> 48.5 µg/mL
CC1CN(c2ccnc3cc(Cl)ccc23)CC(C)O1 (stereo unspecified)	> 41.5 µg/mL

Structure (SMILES)	solubility kinetic
N#C/C(=C\c1cccc(O)c1)C(=O)N1CCCCC1	> 38.4 µg/mL
Cc1cc(NC(=O)c2ccc(C)o2)no1	> 30.9 µg/mL
Cc1ccc(S(=O)(=O)NC2=NCN(C)CN2)cc1[N+](=O)[O-]	> 47 µg/mL
CN(C(=O)c1ccc2nccnc2c1)C1CCCCC1	> 40.4 µg/mL
Cc1cc(C(=O)Nc2ccncc2)c(C)o1	> 32.4 µg/mL
CC1CCCCC1NC(=O)COC(=O)c1ccc([N+](=O)[O-])o1 (stereo unspecified)	> 46.5 µg/mL
COc1ccc(N2CCOCC2)c(NC(=O)c2cccs2)c1	47.7 µg/mL (≈ 150 µM)
CC(C)(C)NCCOc1ccc2ccccc2c1	26.8 µg/mL (≈ 110 µM)
Nc1ccc(N2CCN(c3ccccc3)CC2)c(F)c1	> 40.7 µg/mL
COc1ccccc1C(=O)NC(=O)Nc1cccc(Cl)c1	< 0.3 µg/mL
CSc1ccc(S(=O)(=O)N2CC(=O)Nc3ccccc32)cc1	14.4 µg/mL (≈ 43.1 µM)
CCCSc1ncnc2sc(C)c(C)c12	0.5 µg/mL (≈ 2.1 µM)
COc1ccc(-c2cncnc2-c2ccc(OC)cc2O)cc1	38.6 µg/mL (≈ 125 µM)
Cl.N=C(N)SCP(=O)(c1ccccc1)c1ccccc1	> 49 µg/mL
Cc1noc(C)c1COC(=O)CNC(=O)c1cccc(F)c1	45.9 µg/mL (≈ 150 µM)
CCc1sc(C(=O)Nc2ccccc2N2CCOCC2)cc1C	2.5 µg/mL (≈ 7.57 µM)
COc1ccc(-c2csc(COC(=O)C(C)(C)C)n2)cc1	< 0.7 µg/mL
Cc1ccccc1NC(=S)NC(=O)COc1ccccc1C	1.1 µg/mL (≈ 3.5 µM)
CC(C)NC(=O)CN1CCN(C(=O)CCl)CC1.Cl	> 44.7 µg/mL
Cc1cc(C)c(OCCNCc2ccccc2)c(C)c1.O=C(O)C(=O)O	42.5 µg/mL
COc1ccc(-c2cc3cc(OC)c(OC)cc3c(C)n2)cc1C	< 0.7 µg/mL
COc1ccc(CNCCc2ccc(Cl)cc2Cl)cc1	2.1 µg/mL (≈ 6.77 µM)
O=C(/C=C/c1ccc(Cl)cc1)N1CCOCC1	33.3 µg/mL (≈ 132 µM)
COCC(=O)Nc1c(C(=O)N2CCCC2)oc2ccccc12	40.4 µg/mL (≈ 134 µM)
O=C(CC1SC(N2CCCCC2)=NC1=O)Nc1cccc(C(=O)NCc2ccccc2)c1 (stereo unspecified)	> 67.6 µg/mL

Structure (SMILES)	solubility kinetic
CCOC(=O)c1ccc2[nH]c3c(c2c1)CCCC3	5.5 µg/mL (≈ 22.6 µM)
Cn1ncc(Cl)c1C(=O)N1CCN(c2ccccc2)CC1	> 45.7 µg/mL
O=C1COc2ccc(C(=O)C[n+]3cccc(O)c3)cc2N1.[Cl-]	> 48.1 µg/mL
O=C(NCc1ccccc1F)C1CCCN1C(=O)Nc1cccc(F)c1 (stereo unspecified)	> 53.9 µg/mL
Cc1noc(N)c1C1(O)C(=O)Nc2c(Cl)cc(Cl)cc21 (stereo unspecified)	> 47.1 µg/mL
CC1CCCCN1C(=O)CSc1nc(-c2ccccc2)cn1N (stereo unspecified)	> 49.6 µg/mL
CCc1ccc(N2C(=O)C(Cl)=C(N3CCCCCC3)C2=O)cc1	1.7 µg/mL (≈ 5.11 µM)
O=C(NCCCN1CCCC1=O)Nc1ccc([N+](=O)[O-])cc1	> 45.9 µg/mL
CC(C)(CC(=O)O)CC(=O)Nc1ccc(Oc2ccc(C(C)(C)C)cc2)nc1	> 57.7 µg/mL
CCNC(=O)Nc1cc(OC)c(OC)cc1C(=O)O	> 40.2 µg/mL
O=C1CC(/C=C/c2ccccc2)=Nc2ccccc2N1	2.1 µg/mL (≈ 8.01 µM)
COc1ccc(OC(C)C(=O)NC(C)c2ccccc2)cc1 (stereo unspecified)	> 44.9 µg/mL
Cc1cc(C(F)(F)F)nc(SCC(=O)NC2CCCCC2)n1	33.2 µg/mL (≈ 99.6 µM)
Cc1c(Cl)cccc1NC(=O)NCc1ccc(C)n1C	5.3 µg/mL (≈ 18.2 µM)
Cc1cnc(C(=O)OCc2ccc(Br)cc2)cn1	19 µg/mL (≈ 61.9 µM)
C=CCNC(=S)Nc1cc(C)ccn1	> 31.1 µg/mL
Cc1oc(-c2cccc(Br)c2)[n+]([O-])c1C	> 40.2 µg/mL
O=C(CCc1ccccc1)Nc1cc2c3c(c1)CCC(=O)N3CCC2	40.3 µg/mL (≈ 121 µM)
Cc1ccc2nc(-c3ccncc3)cc(C(=O)Nc3ccncc3)c2c1	3.5 µg/mL (≈ 10.3 µM)
C=C(C)CCOC(=O)C(CC(=O)O)NCc1ccco1 (stereo unspecified)	> 42.2 µg/mL
Cc1ccccc1NC(=S)c1ccc2ccccc2n1	< 0.3 µg/mL
